# Reference: patent US20160130226A1, “SPIRO-SUBSTITUTED OXINDOLE DERIVATIVES HAVING AMPK ACTIVITY” (BOEHRINGER INGELHEIM INTERNATIONAL GMBH, priority 2013, published 2016)
# Columns and labels:
# AMPK beta 2 = molecular target: T1, AMPK beta 2 (Mus musculus, UniProt Q6PAM0+Q8BRK8); experiment: in-cell-ELISA for phospho-ACC: activation of AMPK, beta 2 (HepG2 cells / C2C12 myotubes); format: cell-based; conditions: 2 h, percentage activation over vehicle control; for activation at 1 µM / activation at 3 µM / activation at 10 µM: read-out: Percentage activation of beta 2 at given concentration
# T1 construct: fully differentiated myotubes (C2C12 cells) grown in 96 well plate; endogenous in cells; host or cells: C2C12 myotubes (assignment to the beta 2 column inferred)
# Method: (§1) Activation of AMPK by various compounds were measured using in-cell-ELISA for phospho-ACC (Acetyl-CoA carboxylase 1) in HepG2 cells (liver) and fully differentiated myotubes (C2C12 cells) grown in 96 well plate. Cells were treated with 1 μM, 3 μM or 10 μM of the molecule (Example) for 2 h in serum free DMEM media. After methanol fixation, cells were blocked with BSA followed by addition of anti-phospho ACC antibody (Cell Signaling) and HRP conjugated secondary antibody. Absorbance values taken at 450 nm were normalized with total DNA (Hoechest stain). Results were expressed as percentage activation over vehicle control.
# (§2) Percentage activation at compound (Example) concentration of 1, 3 or 10 μM for compounds according to the invention are shown in the following table. The number of the compound corresponds to the number of the Example (Ex) in the experimental section.
# AMPK beta 1 = molecular target: T2, AMPK beta 1 (Homo sapiens, UniProt Q13131+Q9Y478); experiment: in-cell-ELISA for phospho-ACC: activation of AMPK, beta 1 (HepG2 cells / C2C12 myotubes); format: cell-based; conditions: 2 h, percentage activation over vehicle control; for activation at 1 µM / activation at 3 µM / activation at 10 µM: read-out: Percentage activation of beta 1 at given concentration
# T2 construct: in-cell-ELISA for phospho-ACC (Acetyl-CoA carboxylase 1) in HepG2 cells (liver); endogenous in cells; host or cells: HepG2 (assignment to the beta 1 column inferred)
# Method: as §1, §2
# T2 sequence (Q9Y478 2-270 limits assumed): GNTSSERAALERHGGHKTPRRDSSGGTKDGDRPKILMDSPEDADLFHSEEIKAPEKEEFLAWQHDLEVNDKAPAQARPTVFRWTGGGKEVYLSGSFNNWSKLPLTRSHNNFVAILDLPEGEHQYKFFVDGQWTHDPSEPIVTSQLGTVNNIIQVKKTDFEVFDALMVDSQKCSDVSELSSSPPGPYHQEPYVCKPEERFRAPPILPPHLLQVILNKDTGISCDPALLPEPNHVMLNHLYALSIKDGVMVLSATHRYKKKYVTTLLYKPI
# T2 sequence (Q13131 whole entry): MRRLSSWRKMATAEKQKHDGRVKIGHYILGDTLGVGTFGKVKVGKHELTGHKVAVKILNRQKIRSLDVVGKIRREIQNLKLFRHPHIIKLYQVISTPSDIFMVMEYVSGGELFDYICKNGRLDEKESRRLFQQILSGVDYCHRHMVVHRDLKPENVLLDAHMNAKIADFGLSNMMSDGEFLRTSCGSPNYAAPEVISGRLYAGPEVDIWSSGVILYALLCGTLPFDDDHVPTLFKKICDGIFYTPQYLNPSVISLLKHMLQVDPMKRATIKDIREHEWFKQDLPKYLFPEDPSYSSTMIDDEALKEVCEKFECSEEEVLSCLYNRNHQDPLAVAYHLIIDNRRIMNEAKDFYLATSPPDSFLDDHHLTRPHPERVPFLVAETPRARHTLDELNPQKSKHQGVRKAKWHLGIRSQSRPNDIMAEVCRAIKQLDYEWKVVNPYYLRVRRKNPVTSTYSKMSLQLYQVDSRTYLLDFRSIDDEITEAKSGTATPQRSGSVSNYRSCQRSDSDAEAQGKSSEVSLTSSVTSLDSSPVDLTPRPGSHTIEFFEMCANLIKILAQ
# T2 sequence (P54619 whole entry partner): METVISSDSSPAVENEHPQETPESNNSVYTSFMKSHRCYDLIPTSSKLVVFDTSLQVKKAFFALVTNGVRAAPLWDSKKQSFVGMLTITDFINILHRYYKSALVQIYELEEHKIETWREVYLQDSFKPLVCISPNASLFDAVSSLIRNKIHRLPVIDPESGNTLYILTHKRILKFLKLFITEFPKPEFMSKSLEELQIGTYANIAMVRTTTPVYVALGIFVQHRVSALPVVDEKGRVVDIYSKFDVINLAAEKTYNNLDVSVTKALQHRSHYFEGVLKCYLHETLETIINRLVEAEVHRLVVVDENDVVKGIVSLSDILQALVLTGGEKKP
# T1 sequence (Q6PAM0 whole entry): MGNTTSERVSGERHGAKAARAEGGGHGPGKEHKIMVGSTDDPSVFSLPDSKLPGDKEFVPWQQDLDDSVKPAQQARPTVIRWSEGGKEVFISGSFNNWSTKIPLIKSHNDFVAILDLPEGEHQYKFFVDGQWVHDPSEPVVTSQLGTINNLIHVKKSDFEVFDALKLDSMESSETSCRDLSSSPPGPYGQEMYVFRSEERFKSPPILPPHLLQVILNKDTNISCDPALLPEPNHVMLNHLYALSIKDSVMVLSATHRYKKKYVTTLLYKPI
# T1 sequence (Q8BRK8 whole entry): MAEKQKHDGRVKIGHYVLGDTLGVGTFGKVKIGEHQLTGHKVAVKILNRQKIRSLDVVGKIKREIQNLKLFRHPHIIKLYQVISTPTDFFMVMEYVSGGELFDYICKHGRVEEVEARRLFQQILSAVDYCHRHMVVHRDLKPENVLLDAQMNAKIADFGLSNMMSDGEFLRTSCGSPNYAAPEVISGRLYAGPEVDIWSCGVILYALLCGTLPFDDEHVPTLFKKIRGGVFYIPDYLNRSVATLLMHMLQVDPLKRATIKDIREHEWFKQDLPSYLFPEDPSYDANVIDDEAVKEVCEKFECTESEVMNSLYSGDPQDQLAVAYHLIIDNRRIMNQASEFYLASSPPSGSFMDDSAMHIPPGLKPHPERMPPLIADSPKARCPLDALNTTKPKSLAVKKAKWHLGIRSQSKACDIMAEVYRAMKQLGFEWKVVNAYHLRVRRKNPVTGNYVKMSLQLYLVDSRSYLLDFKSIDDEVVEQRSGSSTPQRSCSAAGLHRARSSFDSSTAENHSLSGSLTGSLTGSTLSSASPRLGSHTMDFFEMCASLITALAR
# T1 sequence (O54950 whole entry partner): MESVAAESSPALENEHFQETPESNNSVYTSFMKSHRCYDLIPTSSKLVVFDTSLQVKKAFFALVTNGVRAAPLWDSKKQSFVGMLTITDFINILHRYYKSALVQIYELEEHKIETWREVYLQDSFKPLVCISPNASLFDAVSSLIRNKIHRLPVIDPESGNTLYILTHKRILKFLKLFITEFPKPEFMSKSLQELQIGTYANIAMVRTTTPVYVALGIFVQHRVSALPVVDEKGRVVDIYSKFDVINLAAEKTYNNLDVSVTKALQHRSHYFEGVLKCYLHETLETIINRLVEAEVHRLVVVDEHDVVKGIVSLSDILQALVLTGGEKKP
smiles,measurement,setting,value
Cc1ccc(C2CC23C(=O)Nc2cc(Cl)c(-c4ccc(-c5ccc(-n6cncn6)cc5)cc4)nc23)cc1C(=O)O (stereo not shown) [Example 125],activation at 1 µM,AMPK beta 2; 1 μM,46%
same,activation at 1 µM,AMPK beta 1; 1 μM,81%
Cc1ccc(C2CC23C(=O)Nc2cc(Cl)c(-c4ccc(-c5ccc(-n6ccnn6)cc5)cc4)cc23)cc1C(=O)O (stereo not shown) [Example 134],Percentage activation of beta 2 at given concentration,AMPK beta 2; 1 μM,47% at 1 μM
same,Percentage activation of beta 1 at given concentration,AMPK beta 1; 1 μM,123% at 1 μM
CCc1ccc(C2CC23C(=O)Nc2cc(Cl)c(-c4ccc(-c5ccc(-n6cncn6)cc5)cc4)cc23)cc1C(=O)O (stereo not shown) [Example 130],activation at 1 µM,AMPK beta 2; 1 μM,102%
same,activation at 1 µM,AMPK beta 1; 1 μM,52%
O=C(O)Cc1ccc(C2CC23C(=O)Nc2cc(Cl)c(-c4ccc(-c5ccccc5O)cc4)cc23)cc1 (stereo not shown) [Example 33],activation at 3 µM,AMPK beta 2; 3 μM,83%
same,activation at 3 µM,AMPK beta 1; 3 μM,71%
CC(C)c1ccc(C2CC23C(=O)Nc2cc(Cl)c(-c4ccc(-c5ccc(-n6cncn6)cc5)cc4)cc23)cc1C(=O)O (stereo not shown) [Example 132],activation at 1 µM,AMPK beta 2; 1 μM,153%
same,activation at 1 µM,AMPK beta 1; 1 μM,59%
CC(C)c1ccc(C2CC23C(=O)N(C)c2cc(Cl)c(-c4ccc(-c5ccncc5O)cc4)cc23)cc1C(=O)O (stereo not shown) [Example 40],activation at 3 µM,AMPK beta 2; 3 μM,32%
same,activation at 3 µM,AMPK beta 1; 3 μM,99%
O=C(O)Cc1cccc(C2CC23C(=O)Nc2cc(F)c(-c4ccc(-c5ccc(-n6cncn6)cc5)cc4)cc23)c1 (stereo not shown) [Example 175],activation at 1 µM,AMPK beta 2; 1 μM,60%
same,activation at 1 µM,AMPK beta 1; 1 μM,119%
O=C(O)c1cccc(C2CC23C(=O)Nc2cc(Cl)c(-c4ccc(-c5ccncc5)cc4)cc23)c1 (stereo not shown) [Example 80],activation at 3 µM,AMPK beta 2; 3 μM,54%
same,activation at 10 µM,AMPK beta 1; 10 μM,137%
Cc1ccc(C2CC23C(=O)N(CC2CC2)c2cc(Cl)c(-c4ccc(-c5ccncc5)cc4)cc23)cc1C(=O)O (stereo not shown) [Example 108],Percentage activation of beta 2 at given concentration,AMPK beta 2; 3 μM,54% at 3 μM
same,Percentage activation of beta 1 at given concentration,AMPK beta 1; 3 μM,72% at 3 μM
Cc1ccc(C2CC23C(=O)Nc2cc(Cl)c(-c4ccc(-c5ccc(S(C)(=O)=O)cc5)cc4)cc23)cc1C(=O)O (stereo not shown) [Example 97],activation at 1 µM,AMPK beta 2; 1 μM,37%
same,activation at 1 µM,AMPK beta 1; 1 μM,99%
Cc1ccc(C2CC23C(=O)Nc2cc(F)c(-c4ccc(-c5ccc(-n6cncn6)cc5)cc4)cc23)cc1C(=O)O (stereo not shown) [Example 146],Percentage activation of beta 2 at given concentration,AMPK beta 2; 1 μM,89% at 1 μM
same,Percentage activation of beta 1 at given concentration,AMPK beta 1; 1 μM,78% at 1 μM
O=C(O)c1cccc(C2CC23C(=O)Nc2cc(F)c(-c4ccc(-c5ccc(-n6cccn6)cc5)cc4)cc23)c1 (stereo not shown) [Example 170],activation at 1 µM,AMPK beta 2; 1 μM,50%
same,activation at 1 µM,AMPK beta 1; 1 μM,58%
Cc1ccc(C2CC23C(=O)Nc2cc(Cl)c(-c4ccc(-c5ccccc5O)cc4)cc23)cc1CO (stereo not shown) [Example 181],activation at 1 µM,AMPK beta 2; 1 μM,88%
same,activation at 1 µM,AMPK beta 1; 1 μM,88%
COc1ccc(C2CC23C(=O)Nc2cc(F)c(-c4ccc(-c5ccc(-n6cncn6)cc5)cc4)cc23)cc1CC(=O)O (stereo not shown) [Example 178],activation at 1 µM,AMPK beta 2; 1 μM,120%
same,activation at 1 µM,AMPK beta 1; 1 μM,98%
O=C(O)c1ccc(C2CC23C(=O)Nc2cc(Cl)c(-c4ccc(-c5ccncc5)cc4)cc23)cc1 (stereo not shown) [Example 95],activation at 10 µM,AMPK beta 2,34%
same,activation at 10 µM,AMPK beta 1; 10 μM,94%
CN1C(=O)C2(CC2c2ccc(CC(=O)O)cc2)c2cc(-c3ccc(-c4ccncc4)cc3)c(Cl)cc21 (stereo not shown) [Example 102],activation at 10 µM,AMPK beta 2,115%
same,activation at 3 µM,AMPK beta 1; 3 μM,33%
Cc1ccc(C2CC23C(=O)Nc2cc(F)c(-c4ccc(-c5ccc(-n6cccn6)cc5)cc4)cc23)cc1C(=O)O (stereo not shown) [Example 142],activation at 1 µM,AMPK beta 2; 1 μM,66%
same,Percentage activation of beta 1 at given concentration,AMPK beta 1; 1 μM,89% at 1 μM
Cc1ccc(C2CC23C(=O)Nc2cc(F)c(-c4ccc(-c5ccccc5O)cc4)cc23)cc1C(=O)O (stereo not shown) [Example 5],activation at 1 µM,AMPK beta 2; 1 μM,50%
same,activation at 3 µM,AMPK beta 1; 3 μM,133%
CC(C)(C(=O)O)c1ccc(C2CC23C(=O)Nc2cc(Cl)c(-c4ccc(-c5ccccc5O)cc4)cc23)cc1 (stereo not shown) [Example 38],activation at 3 µM,AMPK beta 2; 3 μM,106%
same,activation at 1 µM,AMPK beta 1; 1 μM,58%
COc1ccc(C2CC23C(=O)Nc2cc(F)c(-c4ccc(-c5ccc(-n6ccnn6)cc5)cc4)cc23)cc1C(=O)O (stereo not shown) [Example 169],activation at 1 µM,AMPK beta 2; 1 μM,61%
same,activation at 1 µM,AMPK beta 1; 1 μM,36%
Cc1ccc(C2CC23C(=O)Nc2cc(Cl)c(-c4ccc(-c5ccnc(N(C)C)c5)cc4)cc23)cc1C(=O)O (stereo not shown) [Example 86],activation at 3 µM,AMPK beta 2; 3 μM,49%
same,activation at 3 µM,AMPK beta 1; 3 μM,95%
Cc1ccc(C2CC23C(=O)Nc2cc(Cl)c(-c4ccc(-c5ccc(-n6ccnn6)cc5)cc4)cc23)cc1C(=O)O (stereo not shown) [Example 135],Percentage activation of beta 2 at given concentration,AMPK beta 2; 1 μM,214% at 1 μM
same,Percentage activation of beta 1 at given concentration,AMPK beta 1; 1 μM,97% at 1 μM
COc1ccc(C2CC23C(=O)Nc2cc(F)c(-c4ccc(-c5ccc(-n6cncn6)cc5)cc4)cc23)cc1C(=O)O (stereo not shown) [Example 168],activation at 1 µM,AMPK beta 2; 1 μM,84%
same,activation at 1 µM,AMPK beta 1; 1 μM,55%
CC(C)(C(=O)O)c1ccc(C2CC23C(=O)Nc2cc(F)c(-c4ccc(-c5ccc(-n6cncn6)cc5)cc4)cc23)cc1 (stereo not shown) [Example 162],activation at 1 µM,AMPK beta 2; 1 μM,79%
same,Percentage activation of beta 1 at given concentration,AMPK beta 1; 1 μM,61% at 1 μM
CC(C)c1ccc(C2CC23C(=O)Nc2cc(Cl)c(-c4ccc(C5(CO)CC5)cc4)cc23)cc1C(=O)O (stereo not shown) [Example 46],activation at 3 µM,AMPK beta 2; 3 μM,42%
same,activation at 3 µM,AMPK beta 1; 3 μM,83%
COc1ccc(C2CC23C(=O)Nc2cc(Cl)c(-c4ccc(-c5ccc(-n6cncn6)cc5)cc4)cc23)cc1CC(=O)O (stereo not shown) [Example 123],activation at 1 µM,AMPK beta 2; 1 μM,85%
same,activation at 1 µM,AMPK beta 1; 1 μM,66%
COc1ccc(C2CC23C(=O)Nc2cc(F)c(-c4ccc(-c5ccc(-n6cccn6)cc5)cc4)cc23)cc1C(=O)O (stereo not shown) [Example 164],activation at 1 µM,AMPK beta 1; 1 μM,19%
Cc1ccc(C2CC23C(=O)Nc2cc(Cl)c(-c4ccc(-c5ncccc5O)cc4)cc23)cc1C(=O)O (stereo not shown) [Example 20],activation at 3 µM,AMPK beta 1; 3 μM,99%
Cc1ccc(C2CC23C(=O)Nc2cc(Cl)c(-c4ccc5c(ccn5CCO)c4)cc23)cc1C(=O)O (stereo not shown) [Example 47],activation at 10 µM,AMPK beta 1; 10 μM,72%
O=C(O)c1cccc(C2CC23C(=O)Nc2cc(F)c(-c4ccc(-c5ccccc5O)cc4)cc23)c1 (stereo not shown) [Example 2],activation at 3 µM,AMPK beta 1; 3 μM,60%
CCN1C(=O)C2(CC2c2ccc(OC)c(C(=O)O)c2)c2cc(-c3ccc(-c4ccncc4)cc3)c(Cl)cc21 (stereo not shown) [Example 106],activation at 3 µM,AMPK beta 1; 3 μM,99%
O=C(O)Cc1ccc(C2CC23C(=O)Nc2cc(Cl)c(-c4ccc(-c5ccc(-n6cncn6)cc5)cc4)cc23)cc1 (stereo not shown) [Example 127],activation at 3 µM,AMPK beta 1; 3 μM,71%
O=C(O)Cc1cccc(C2CC23C(=O)Nc2cc(Cl)c(-c4ccc(-c5ccccc5O)cn4)cc23)c1 (stereo not shown) [Example 16],Percentage activation of beta 1 at given concentration,AMPK beta 1; 10 μM,23% at 10 μM
O=C(O)Cc1cccc(C2CC23C(=O)Nc2cc(Cl)c(-c4ccc(-c5ccccc5O)cc4)cc23)c1 (stereo not shown) [Example 26],activation at 3 µM,AMPK beta 1; 3 μM,73%
Cc1ccc(C2CC23C(=O)Nc2cc(Cl)c(-c4ccc(-c5ccccc5O)cn4)cc23)cc1CC(=O)O (stereo not shown) [Example 19],activation at 3 µM,AMPK beta 1; 3 μM,43%
O=C(O)Cc1cccc(C2CC23C(=O)Nc2cc(Cl)c(-c4ccc(-c5ccc(-n6cncn6)cc5)cc4)cc23)c1 (stereo not shown) [Example 129],activation at 3 µM,AMPK beta 1; 3 μM,15%
Cc1ccc(C2CC23C(=O)Nc2cc(Cl)c(-c4ccc(-c5ccc(-n6cncn6)cc5)cc4)cc23)cc1CO (stereo not shown) [Example 184],activation at 3 µM,AMPK beta 1; 3 μM,36%
Cc1ccc(C2CC23C(=O)N(CCO)c2cc(Cl)c(-c4ccc(-c5ccncc5)cc4)cc23)cc1C(=O)O (stereo not shown) [Example 105],activation at 3 µM,AMPK beta 1; 3 μM,81%
O=C(O)Cc1cccc(C2CC23C(=O)Nc2cc(Cl)c(-c4ccc(C5(CO)CC5)cc4)cc23)c1 (stereo not shown) [Example 48],activation at 10 µM,AMPK beta 1; 10 μM,74%
Cc1ccc(C2CC23C(=O)N(C)c2cc(Cl)c(-c4ccc(-c5ccncc5O)cc4)cc23)cc1C(=O)O (stereo not shown) [Example 41],activation at 10 µM,AMPK beta 1; 10 μM,29%
Cc1ccc(C2CC23C(=O)Nc2cc(Cl)c(-c4ccc(-n5cccn5)cc4)cc23)cc1C(=O)O (stereo not shown) [Example 166],activation at 3 µM,AMPK beta 1; 3 μM,62%
Cn1ccc2cc(-c3cc4c(cc3F)NC(=O)C43CC3c3cccc(CC(=O)O)c3)ccc21 (stereo not shown) [Example 56],activation at 10 µM,AMPK beta 1; 10 μM,79%
Cc1ccc(C2CC23C(=O)N(C)c2cc(Cl)c(-c4ccc(-c5ccncc5)cc4)cc23)cc1C(=O)O (stereo not shown) [Example 100],activation at 3 µM,AMPK beta 1; 3 μM,134%
Cc1ccc(C2CC23C(=O)N(C)c2cc(Cl)c(-c4ccc(-c5ncccc5O)cc4)cc23)cc1C(=O)O (stereo not shown) [Example 36],activation at 10 µM,AMPK beta 1; 10 μM,39%
